Key:
Format in all cases: in vivo
[1] = tested on: western flower thrips (Frankliniella occidentalis); experiment: Test E: control of western flower thrips on Soleil bean plant, contact and/or systemic; details: held 6 days
Outline: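 5–7-day-old Soleil bean plants were sprayed at 250 or 50 ppm in 10% acetone/90% water with 300 ppm X-77 surfactant, three replicates. After drying 1 h, 22–27 adult thrips were added per unit. Mortality and plant damage were rated after 6 days at 25 °C and 45–55% RH.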

[2] = tested on: fall armyworm (Spodoptera frugiperda); experiment: Test B: control of fall armyworm on corn (maize) plant, foliar spray; details: sprayed at 50 ppm
Outline: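 4-5-day-old corn plants pre-infested with 10-15 1-day-old larvae on insect diet, then sprayed with compound at 50 ppm in 10% acetone/90% water with 300 ppm surfactant, three replicates. Held 6 days at 25° C, 70% RH; feeding damage assessed visually and mortality rated.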

[3] = tested on: diamondback moth (Plutella xylostella); experiment: Test A: control of diamondback moth on radish plant, foliar spray; details: sprayed at 50 ppm, held 6 days
Outline: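 Radish plants 12–14 days old, pre-infested with about 50 neonate larvae, sprayed at 50 ppm in 10% acetone/water with 300 ppm X-77 surfactant; three replicates. After 6 days at 25° C and 70% RH, feeding damage was scored visually and mortality counted.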

Measured: levels of control efficacy (20% or less feeding damage or 80% or more mortality)

CSCCNC(=O)c1ccc(C2=NOC(c3cc(C(F)(F)F)cc(C(F)(F)F)c3)(C(F)(F)F)C2)c2ccccc12 (racemic) [Compound 58]
very good to excellent: [1]; sprayed at 50 ppm | [1]; sprayed at 250 ppm | [2] | [3]

CSCCNC(=O)c1ccc(C2=NOC(c3cc(F)cc(C(F)(F)F)c3)(C(F)(F)F)C2)c2ccccc12 (racemic) [Compound 132]
very good to excellent: [1]; sprayed at 50 ppm | [1]; sprayed at 250 ppm | [2] | [3]

CS(=O)(=O)CCNC(=O)c1ccc(C2=NOC(c3cc(F)cc(C(F)(F)F)c3)(C(F)(F)F)C2)c2ccccc12 (racemic) [Compound 134]
very good to excellent: [1]; sprayed at 50 ppm | [1]; sprayed at 250 ppm | [2] | [3]

O=C(CNC(=O)c1ccc(C2=NOC(c3cc(F)cc(C(F)(F)F)c3)(C(F)(F)F)C2)c2ccccc12)NCC(F)(F)F (racemic) [Compound 135]
very good to excellent: [1]; sprayed at 250 ppm | [2] | [3]

O=C(CNC(=O)c1ccc(C2=NOC(c3cc(Cl)cc(OC(F)(F)F)c3)(C(F)(F)F)C2)c2ccccc12)NCC(F)(F)F (racemic) [Compound 136]
very good to excellent: [1]; sprayed at 50 ppm | [2] | [3]

CNC(=O)CNC(=O)c1ccc(C2=NOC(c3cc(Br)cc(C(F)(F)F)c3)(C(F)(F)F)C2)c2ccccc12 (racemic) [Compound 143]
very good to excellent: [1]; sprayed at 50 ppm | [2] | [3]

CCNC(=O)CNC(=O)c1ccc(C2=NOC(c3cc(Br)cc(C(F)(F)F)c3)(C(F)(F)F)C2)c2ccccc12 (racemic) [Compound 144]
very good to excellent: [1]; sprayed at 50 ppm | [2] | [3]

O=C(CNC(=O)c1ccc(C2=NOC(c3cc(Cl)cc(Cl)c3)(C(F)(F)F)C2)c2ccccc12)NCC(F)(F)F (stereo not shown) [Compound 1]
very good to excellent: [1]; sprayed at 50 ppm | [1]; sprayed at 250 ppm | [2] | [3]

CC(C)(NC(=O)c1ccc(C2=NOC(c3cc(Cl)cc(Cl)c3)(C(F)(F)F)C2)c2ccccc12)C(=O)NCC(F)(F)F (stereo not shown) [Compound 4]
very good to excellent: [1]; sprayed at 50 ppm | [1]; sprayed at 250 ppm | [2] | [3]

CC(C)NC(=O)CNC(=O)c1ccc(C2=NOC(c3cc(Cl)cc(Cl)c3)(C(F)(F)F)C2)c2ccccc12 (stereo not shown) [Compound 5]
very good to excellent: [1]; sprayed at 50 ppm | [1]; sprayed at 250 ppm | [2] | [3]

CC(C)CNC(=O)CNC(=O)c1ccc(C2=NOC(c3cc(Cl)cc(Cl)c3)(C(F)(F)F)C2)c2ccccc12 (stereo not shown) [Compound 6]
very good to excellent: [1]; sprayed at 50 ppm | [1]; sprayed at 250 ppm | [2] | [3]

CCN(C)C(=O)CNC(=O)c1ccc(C2=NOC(c3cc(Cl)cc(Cl)c3)(C(F)(F)F)C2)c2ccccc12 (stereo not shown) [Compound 7]
very good to excellent: [1]; sprayed at 50 ppm | [1]; sprayed at 250 ppm | [2] | [3]

CCNC(=O)CNC(=O)c1ccc(C2=NOC(c3cc(Cl)cc(Cl)c3)(C(F)(F)F)C2)c2ccccc12 (stereo not shown) [Compound 8]
very good to excellent: [1]; sprayed at 50 ppm | [1]; sprayed at 250 ppm | [2] | [3]

O=C(NCCO)c1ccc(C2=NOC(c3cc(Cl)cc(Cl)c3)(C(F)(F)F)C2)c2ccccc12 (stereo not shown) [Compound 11]
very good to excellent: [1]; sprayed at 50 ppm | [1]; sprayed at 250 ppm | [2] | [3]

O=C(CNC(=O)c1ccc(C2=NOC(c3cc(Cl)cc(Cl)c3)(C(F)(F)F)C2)c2ccccc12)NCCF (stereo not shown) [Compound 12]
very good to excellent: [1]; sprayed at 50 ppm | [1]; sprayed at 250 ppm | [2] | [3]

CSCCNC(=O)c1ccc(C2=NOC(c3cc(Cl)c(Cl)c(Cl)c3)(C(F)(F)F)C2)c2ccccc12 (stereo not shown) [Compound 15]
very good to excellent: [1]; sprayed at 50 ppm | [1]; sprayed at 250 ppm | [2] | [3]

CSCCNC(=O)c1ccc(C2=NOC(c3cc(Cl)cc(Cl)c3)(C(F)(F)F)C2)c2ccccc12 (stereo not shown) [Compound 17]
very good to excellent: [1]; sprayed at 50 ppm | [1]; sprayed at 250 ppm | [2] | [3]

C[S+]([O-])CCNC(=O)c1ccc(C2=NOC(c3cc(Cl)cc(Cl)c3)(C(F)(F)F)C2)c2ccccc12 (stereo not shown) [Compound 18]
very good to excellent: [1]; sprayed at 50 ppm | [1]; sprayed at 250 ppm | [2] | [3]

O=C(CNC(=O)c1ccc(C2=NOC(c3cc(Cl)c(Cl)c(Cl)c3)(C(F)(F)F)C2)c2ccccc12)NCC(F)(F)F (stereo not shown) [Compound 19]
very good to excellent: [1]; sprayed at 50 ppm | [1]; sprayed at 250 ppm | [2] | [3]

CS(=O)(=O)CCNC(=O)c1ccc(C2=NOC(c3cc(Cl)cc(Cl)c3)(C(F)(F)F)C2)c2ccccc12 (stereo not shown) [Compound 20]
very good to excellent: [1]; sprayed at 50 ppm | [1]; sprayed at 250 ppm | [2] | [3]

Source: patent US8410153B2, “Naphthalene isoxazoline invertebrate pest control agents” (E.I. du Pont de Nemours and Company, priority 2007, dated 2013)
